Data: patent US20110028566A1, “COMPOSITIONS AND PRODUCTS CONTAINING CYCLOALIPHATIC DIOL ANTIMICROBIAL AGENTS AND METHODS OF USING THE COMPOSITIONS AND PRODUCTS” (EASTMAN CHEMICAL COMPANY, priority 2009, published 2011)
Entries after “also recorded” stand apart in the source; their conditions may differ.

Legend:
A. niger = assay: MIC comparison of 1,1- and 1,4-CHDM, 96-well plates; assay type: cell-based
Experimental: (§1) The antimicrobial activities of 1,4-cyclohexanedimethanol (1,4-CHDM) and 1,1-cyclohexanedimethanol (1,1-CHDM) have been determined. […] MICs were individually calculated for three consecutive days with both 1,1-cyclohexanedimethanol and the 31% cis:69% trans mixture of 1,4-cyclohexanedimethanol. Both compounds were evaluated against a panel of five strains of microorganisms.
(§2) Strains P. aeruginosa, C. albicans, E. coli, A. niger and S. aureus were purchased from the American Type Culture Collection (Manassas, Va.). NUNC flat bottom polystyrene 96 well microtiter plates (NUNC Cat# 269787), and 17×100 mm culture tubes (VWR Cat# 60818-703) were purchased from VWR International, LLC (West Chester, Pa.). Eastman CHDM-D90 and 1,1-CHDM (>99.7% by GC and verified by NMR) were provided by Eastman Chemical Company (Kingsport, Tenn.). All bacterial cultures were grown in BD BBL trypticase soy broth, and all fungal cultures were grown in sabourand dextrose broth purchased from VWR International, LLC (West Chester, Pa.). Absorbance measurements were taken with a TECAN GENios Pro microplate reader.
A. niger was cultured on sabourand dextrose agar plates until a heavy concentration of black spores were visibly apparent. Spores were harvested from the plate by suspension in 3 ml of sabourand dextrose broth utilizing a sterile plastic spreader and sterile transfer pipette.
(§3) Stock solutions were prepared for each isomer in the corresponding growth media at a concentration of 5% w/v (1,4-CHDM) or 2.25% w/v (1,1-CHDM). Serial dilutions were prepared with a dilution ratio of 1:1.3333 such that one log range was covered with nine dilutions.
(§4) Two-hundred microliters of each CHDM concentration was transferred into 4 wells of a sterile 96-well plate. Four extra wells of the highest concentration were filled for the uninoculated high-level controls. Eight additional wells were filled with only sterile broth to serve as negative and positive controls. The last well of each CHDM isomer dilution was left uninoculated to serve as controls for background turbidity associated with test compounds. Plates with bacteria or C. albicans were inoculated with 2 μl of seed culture for final concentration of roughly 10^6 CFU/ml for the bacteria and 10^5 CFU/ml for the C. albicans. Plates with A. niger were inoculated with 2 μl of spore suspension prepared above.
(§5) Each plate was covered and incubated at the appropriate temperature and turbidity as a measure of cell density was determined via absorbance measurement at 612 nm using a microplate reader. Measurements were taken at 24, 48 and 72 hours for each plate. The raw data was exported into an Excel spreadsheet and the MIC values were determined and expressed as wt %. The absorbance of each inoculated CHDM well was retrieved by first subtracting out the average reading for each uninoculated well, then by comparison to a positive threshold to determine positive or negative status for growth. The positive threshold was calculated by multiplication of the average absorbance for the inoculated media-only wells by 0.05. The MIC was determined as the lowest test concentration resulting in all three replicate wells displaying values below the positive threshold.

P. aeruginosa = assay: as above; assay type: cell-based
Experimental: as §1, §2
(§6) A small loopful of inoculum was transferred from a freshly streaked agar plate of each strain to 5 ml of sterile media in a 17×100 mm culture tube. The bacteria were incubated for 20-28 hours and C. albicans for 44-52 hours.
as §3, §4, §5

E. coli = assay: as above; assay type: cell-based
Experimental: as §1, §2, §6, §3, §4, §5

C. albicans = assay: as above; assay type: cell-based
Experimental: as §1, §2, §6, §3, §4, §5

S. aureus = assay: as above; assay type: cell-based
Experimental: as §1, §2, §6, §3, §4, §5

[1] = system: panel of five strains of microorganisms; assay: MIC comparison of 1,1- and 1,4-CHDM (Example 6), statements over the panel; assay type: cell-based; details: MIC at 24, 48 and 72 hours
Experimental: as §1
Strains P. aeruginosa, C. albicans, E. coli, A. niger and S. aureus were purchased from the American Type Culture Collection (Manassas, Va.). […] Absorbance measurements were taken with a TECAN GENios Pro microplate reader. […]
as §5, with “Measurements were taken at 24, 48 and 72 hours for each plate.” left out

[2] = Solubility in aqueous growth media; assay type: physicochemical
Excerpt: Final results have been summarized below in Table 59.

Structure (SMILES) | MIC Day 1 (A. niger; 24 H) [wt %] | MIC Day 2 (A. niger; 48 H) [wt %] | MIC Day 3 (A. niger; 72 H) [wt %] | MIC Day 1 (P. aeruginosa; 24 H) [wt %] | MIC Day 2 (P. aeruginosa; 48 H) [wt %] | MIC Day 3 (P. aeruginosa; 72 H) [wt %] | MIC Day 1 (E. coli; 24 H) [wt %] | MIC Day 2 (E. coli; 48 H) [wt %] | MIC Day 3 (E. coli; 72 H) [wt %] | MIC Day 1 (C. albicans; 24 H) [wt %] | MIC Day 2 (C. albicans; 48 H) [wt %] | MIC Day 3 (C. albicans; 72 H) [wt %] | MIC Day 1 (S. aureus; 24 H) [wt %] | MIC Day 2 (S. aureus; 48 H) [wt %] | MIC Day 3 (S. aureus; 72 H) [wt %] | Antimicrobial efficacy (MIC) compared with 1,4-CHDM (in words) [1] | Antimicrobial efficacy (MIC) compared with 1,4-CHDM (in words) ([1]; listed as 1,1-cyclohexanedimethanol) | Solubility [2]
OCC1(CO)CCCCC1 [1,1 CHDM] | >2.25 | >2.25 | >2.25 | 1.26 | 1.26 | 1.26 | 1.26 | 1.26 | 1.26 | 2.25 | 2.25 | 2.25 | 2.25 | 2.25 | 2.25 | – | – | –
OCC1(CO)CCCCC1 [1,1-CHDM, 1,1-cyclohexanedimethanol] | – | – | – | – | – | – | – | – | – | – | – | – | – | – | – | significant improvement in efficacy over 1,4-CHDM; also recorded: lower MIC values; also recorded: improved efficacy over 1,4-CHDM | measurable increase in antimicrobial efficacy over that of 1,4-cyclohexanedimethanol; also recorded: Antimicrobial efficacy increased against four of the five test organisms | ≤ 2.25 % (w/v)
